Experimental data as given in patent publication US7078499B2, “Nucleotide analogues comprising a reporter moiety and a polymerase enzyme blocking moiety” (GE Healthcare UK Limited, priority 2000, dated 2006).

Assays:
Assay type in all cases: biochemical
Pfu DNA polymerase = target: T1, Pfu DNA polymerase (Pyrococcus furiosus, UniProt P61875); experiment: Thermostable DNA polymerase primer extension, Pfu; set-up: key: −: No extension within assay time; +/−: up to 25% of primer extended by at least one base within assay time; +: up to 50% of primer extended by at least one base within assay time; ++: up to 75% of primer extended by at least one base within assay time; +++: essentially all primer extended by at least one base within assay time; conditions: DNA template, TTP replaced entirely by test compound, 45° C. for 20–40 minutes
T1 construct: purchased Stratagene Ltd
T1 sequence (P61875 1-775): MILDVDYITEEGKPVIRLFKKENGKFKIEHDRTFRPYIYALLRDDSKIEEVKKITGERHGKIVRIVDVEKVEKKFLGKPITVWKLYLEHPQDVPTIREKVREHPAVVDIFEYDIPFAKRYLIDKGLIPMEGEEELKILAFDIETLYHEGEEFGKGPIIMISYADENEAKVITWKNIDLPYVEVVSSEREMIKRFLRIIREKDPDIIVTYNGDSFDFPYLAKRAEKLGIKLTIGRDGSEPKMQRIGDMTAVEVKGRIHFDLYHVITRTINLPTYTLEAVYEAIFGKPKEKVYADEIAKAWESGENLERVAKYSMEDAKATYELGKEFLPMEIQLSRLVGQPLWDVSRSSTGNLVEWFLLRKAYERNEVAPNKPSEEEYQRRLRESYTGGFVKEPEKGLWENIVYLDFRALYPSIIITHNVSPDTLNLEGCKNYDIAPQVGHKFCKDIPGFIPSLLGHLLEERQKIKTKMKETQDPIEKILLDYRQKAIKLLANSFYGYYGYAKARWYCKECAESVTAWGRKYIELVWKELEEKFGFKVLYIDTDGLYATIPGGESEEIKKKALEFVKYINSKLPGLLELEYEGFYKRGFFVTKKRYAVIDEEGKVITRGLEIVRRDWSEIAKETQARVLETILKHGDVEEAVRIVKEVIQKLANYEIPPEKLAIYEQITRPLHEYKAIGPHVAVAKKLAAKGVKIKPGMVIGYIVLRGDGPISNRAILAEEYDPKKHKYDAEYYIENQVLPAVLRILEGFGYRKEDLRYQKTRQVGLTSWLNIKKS
Description: (§1) DNA polymerase assays were performed using Sequence 1 as primer and Sequence 2 as template. • Sequence 1 5′[Cy3]TAACTCATTAACAGGATC 3′ • Sequence 2 5′AT TCGCGGTATTCTGGTATGAAGCTTTTAGATCCTGTTAATGAGTTA GTA3′
(§2) The template (Sequence 2) was designed such that the base (underlined) immediately adjacent to the 3′ end of the hybridised primer is complementary to the nucleotide test compound. Nucleotide test compounds were compounds (6) (4′-C-(glycylaminomethyl)thymidine triphosphate), (8) (4′-C-(N-trifluoroacetyaminomethyl)thymidine triphosphate) and (9) (4′-C-(aminomethyl)thymidine triphosphate) as described above.
(§3) Primer extension reactions were performed using the above primers in the presence of 40 to 80 μM of nucleotide triphosphates. Positive control reactions contained all four native nucleotide triphosphates. For the other reactions the TTP was replaced with either a 2:1 ratio of […] for the terminator control, or entirely by the test compound The enzymes were used at a final concentration of 0.175 units/μl and a magnesium ion concentration of 2.5 mM in buffers supplied by the manufacturer. The primer and template concentrations were 0.5 pmol/μl and 2 pmol/μl respectively.
(§4) Extension reactions with thermophilic enzymes were performed by initially denaturing the fully assembled reactions at 70° C. for 5 min. followed by 45° C. for 20–40 minutes. The following enzymes were used: Taq DNA polymerase (Taq); Thermosequenase (TS); Thermosequenase II (TSII); Thermosequenase E (TSE), Tfl DNA polymerase (Tfl); Tth DNA polymerase (Tth), deltaTts DNA polymerase (deltaTts), deltaTts D DNA polymerase (dettaTTSD) (all from APBiotech); Pfu DNA polymerase (Pfu) (Stratagene Ltd); Vent™ DNA polymerase (Vent) (New England Biolabs).
The reactions were stopped by adding a 0.5 volume aliquot of 80% formamide containing 0.1% (w/v) bromophenol blue and 0.1% (w/v) cresol blue. […]
Gels were scanned for Cy3 fluorescence on a Molecular Dynamics Fluorimager and the data analysed using Molecular Dynamics ImageQuant 5 software. […]

Tth DNA polymerase = target: T2, Tth DNA polymerase (Thermus thermophilus, UniProt P52028); experiment: Thermostable polymerase under reverse transcription conditions, Tth; set-up: key to result of incorporation (termination / further chain extension): T: Incorporation results in termination; E: Incorporation permits further chain extension; T/E: Predominant product is primer extended by one base, but evidence of some further extension also observed; key to primer extended by at least one base within assay time (grade): −: No extension within assay time; +/−: up to 25% of primer extended by at least one base within assay time; +: up to 50% of primer extended by at least one base within assay time; ++: up to 75% of primer extended by at least one base within assay time; +++: essentially all primer extended by at least one base within assay time; conditions: RNA template, 2.5 mM Manganese ions; for primer extended by at least one base within assay time (grade): Tth reaction buffer
T2 construct: purchased APBiotech
Description: as §1, §2, §3, §4
(§5) Reverse transcriptase reactions were performed essentially as described above for thermophilic and mesophilic enzymes. The template for these reactions was the RNA equivalent of sequence 2. All the thermophilic enzymes were assayed in Tth reaction buffer (Cambio Ltd, Cambridge UK) containing 2.5 mM Manganese ions. The following enzymes were used: Thermosequenase (TS1); Thermosequenase II (TSII); delta Tts DNA polymerase (deltaTts); delta Tts D DNA polymerase (deltaTtsD) (all from APBiotech); Retrotherm reverse transcriptase (Retroth) (Cambio Ltd); Tth DNA polymerase (Tth) (Cambio Ltd.).
(§6) The reactions were stopped by adding a 0.5 volume aliquot of 80% formamide containing 0.1% (w/v) bromophenol blue and 0.1% (w/v) cresol blue. The reaction products were separated by denaturing gel electrophoresis at a constant power of 45 W on 16% polyacrylamide gels containing 50% urea.
(§7) Gels were scanned for Cy3 fluorescence on a Molecular Dynamics Fluorimager and the data analysed using Molecular Dynamics ImageQuant 5 software.
(§8) The incorporation of a test nucleotide triphosphate results in the appearance on a polyacrylamide gel of a single band corresponding to a single base extension product. If, however, the enzyme adds additional bases then further bands would be observed that corresponded to either the full-length product or positions of other complementary bases in the template.

[1] = test system: delta Tts D DNA polymerase; experiment: Thermostable polymerase under reverse transcription conditions, delta TtsD; set-up: key to result of incorporation (termination / further chain extension): T: Incorporation results in termination; E: Incorporation permits further chain extension; T/E: Predominant product is primer extended by one base, but evidence of some further extension also observed; key to primer extended by at least one base within assay time (grade): −: No extension within assay time; +/−: up to 25% of primer extended by at least one base within assay time; +: up to 50% of primer extended by at least one base within assay time; ++: up to 75% of primer extended by at least one base within assay time; +++: essentially all primer extended by at least one base within assay time; conditions: RNA template, 2.5 mM Manganese ions; for primer extended by at least one base within assay time (grade): Tth reaction buffer
Description: as §1, §2, §3, §4, §5, §6, §7, §8

T2 sequence (P52028 whole entry): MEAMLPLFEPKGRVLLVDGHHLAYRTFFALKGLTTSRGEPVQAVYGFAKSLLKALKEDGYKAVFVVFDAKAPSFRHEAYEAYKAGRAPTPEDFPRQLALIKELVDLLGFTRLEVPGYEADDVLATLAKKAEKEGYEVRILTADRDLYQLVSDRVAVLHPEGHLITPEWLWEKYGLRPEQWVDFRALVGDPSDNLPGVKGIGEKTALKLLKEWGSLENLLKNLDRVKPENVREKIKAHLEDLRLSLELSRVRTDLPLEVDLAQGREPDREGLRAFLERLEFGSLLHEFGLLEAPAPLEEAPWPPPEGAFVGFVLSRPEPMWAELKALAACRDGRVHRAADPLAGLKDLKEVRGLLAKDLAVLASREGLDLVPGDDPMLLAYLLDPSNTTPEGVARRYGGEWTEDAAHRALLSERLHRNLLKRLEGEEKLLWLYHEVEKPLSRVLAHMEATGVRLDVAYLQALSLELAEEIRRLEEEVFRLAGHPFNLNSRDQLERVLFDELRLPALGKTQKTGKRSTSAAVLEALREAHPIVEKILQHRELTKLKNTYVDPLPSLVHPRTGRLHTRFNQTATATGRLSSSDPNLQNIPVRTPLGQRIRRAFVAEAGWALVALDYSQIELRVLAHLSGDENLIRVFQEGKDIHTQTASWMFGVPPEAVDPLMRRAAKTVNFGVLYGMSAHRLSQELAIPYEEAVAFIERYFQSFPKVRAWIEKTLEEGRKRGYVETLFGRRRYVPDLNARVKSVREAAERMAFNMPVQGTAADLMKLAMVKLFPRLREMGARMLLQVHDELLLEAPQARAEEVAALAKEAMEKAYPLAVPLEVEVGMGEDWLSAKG

| Compound | primer extended by at least one base within assay time (grade) (Pfu DNA polymerase) | result of incorporation (termination / further chain extension) (Tth DNA polymerase) | primer extended by at least one base within assay time (grade) (Tth DNA polymerase) | result of incorporation (termination / further chain extension) [1] | primer extended by at least one base within assay time (grade) [1] |
| --- | --- | --- | --- | --- | --- |
| 4′-C-(Aminomethyl)thymidine triphosphate [compound (9)] | − | T | +++ | E | +++ |
| 4′-C-(Glycylaminomethyl)thymidine triphosphate [compound (6)] | − | T | +++ | E | +++ |
| Cc1cn([C@H]2C[C@H](O)[C@@](CNC(=O)C(F)(F)F)(COP(=O)(O)OP(=O)(O)OP(=O)(O)O)O2)c(=O)[nH]c1=O [compound (8), 4′-C-(N-trifluoroacetylaminomethyl)thymidine triphosphate] | − | T | +++ | E | +++ |
